Results from patent publication US6759403B2, “Metalloporphyrins and their uses as radiosensitizers for radiation therapy” (Brookhaven Science Associates, LLC, priority 2001, dated 2004).

Assay: Toxicity observation during and after porphyrin administration and at necropsy (Examples 2 and 3)
Type: in vivo
Conditions: Examples 2 and 3 (186 or 156 μg CuTCPBr/g)
From the text: Toxicity is the critical factor, and since no toxicity was observed, the dose can be increased to achieve tumor boron concentrations higher than those in Examples 2 and 3.

In the case of “copper octabromotetracarboranylphenylporphyrin [CuTCPBr]”, the tissues at necropsy is reported as “all tissues appeared normal” and the “toxic effects, physically or behaviorally” value (during and after porphyrin administration) is reported as “no toxic effects were noted”.
